Parameters in all cases: dose 20 mg/kg, route intravenous
What all share (settings): in vivo

Series [1] is described as follows: Drug level in New Zealand white rabbit synovial space assessed as [14C]dalbavancin level per gram of tissue at 20 mg/kg, iv after 72 hrs by autoradioluminography. In kind it is ADME, organism-based, Oryctolagus cuniculus.
Series [2] is described as follows: Drug level in New Zealand white rabbit bone marrow assessed as [14C]dalbavancin level per gram of tissue at 20 mg/kg, iv after 12 hrs by autoradioluminography. The format is ADME, organism-based, Oryctolagus cuniculus.
The nature of series [3]: Drug level in New Zealand white rabbit skeletal muscle assessed as [14C]dalbavancin level per gram of tissue at 20 mg/kg, iv after 72 hrs by autoradioluminography. In kind it is ADME, organism-based, Oryctolagus cuniculus.
The nature of series [4]: Drug level in New Zealand white rabbit periostium assessed as [14C]dalbavancin level per gram of tissue at 20 mg/kg, iv after 12 hrs by autoradioluminography. The format is ADME, organism-based, Oryctolagus cuniculus, Periosteum.
A short description of series [5]: Drug level in New Zealand white rabbit articular cartilage assessed as [14C]dalbavancin level per gram of tissue at 20 mg/kg, iv after 168 hrs by autoradioluminography. The format is ADME, organism-based, Oryctolagus cuniculus.
Series [6] in a line: Drug level in New Zealand white rabbit ligament assessed as [14C]dalbavancin level per gram of tissue at 20 mg/kg, iv after 12 hrs by autoradioluminography. In kind it is ADME, organism-based, Oryctolagus cuniculus.
Another series has as its system Oryctolagus cuniculus. In words: Plasma concentration in New Zealand white rabbit assessed as [14C]dalbavancin level per gram of tissue at 20 mg/kg, iv after 12 hrs by liquid scintillation counting method. The format is ADME, organism-based.
A short description of series [7]: Drug level in New Zealand white rabbit bone assessed as [14C]dalbavancin level per gram of tissue at 20 mg/kg, iv after 120 hrs by liquid scintillation counting method. The format is ADME, organism-based, Oryctolagus cuniculus, Bone element.
A short description of series [8]: Drug level in New Zealand white rabbit bone marrow assessed as [14C]dalbavancin level per gram of tissue at 20 mg/kg, iv after 336 hrs by liquid scintillation counting method. In kind it is ADME, organism-based, Oryctolagus cuniculus.
Series [9] can be described thus: Drug level in New Zealand white rabbit nucleus pulposus assessed as [14C]dalbavancin level per gram of tissue at 20 mg/kg, iv after 168 hrs by liquid scintillation counting method. The format is ADME, organism-based, Oryctolagus cuniculus.

As for `CN[C@H]1C(=O)N[C@@H]2Cc3ccc(cc3)Oc3cc4cc(c3O[C@@H]3O[C@H](C(=O)O)[C@@H](O)[C@H](O)[C@H]3NC(=O)CCCCCCCCC(C)C)Oc3ccc(cc3Cl)[C@@H](O)[C@@H]3NC(=O)[C@H](NC(=O)[C@@H]4NC(=O)[C@@H](NC2=O)c2cc(cc(O)c2Cl)Oc2cc1ccc2O)c1ccc(O)c(c1)-c1c(O[C@H]2O[C@H](CO)[C@@H](O)[C@H](O)[C@@H]2O)cc(O)cc1[C@@H](C(=O)NCCCN(C)C)NC3=O` [DALBAVANCIN], the Drug uptake in [1] was determined as 1.49 µg/g; in series [2] it was 40.2 µg/g; in [3], 1.25 µg; in [4], 20.9 µg/g; in series [5], 7.48 µg/g; in series [6], 22.1 µg/g. Besides, the Drug uptake in series [7] was determined as 3.46 µg/g; in series [8], 12 µg/g; in series [9], 0.64 µg/g. Besides, the Cp in the series with Oryctolagus cuniculus turned out to be 46.88 µg.
